How the values were obtained:
Assay type in all cases: in vivo, rat
[1] = system: Fisher to Lewis renal allograft; assay: Fisher to Lewis renal allograft model of chronic allograft nephropathy (graft survival, serum creatinine, urinary protein, histology)
Method: Animals: Donor and recipients rats (greater than 250 gm) were obtained from Harlan Sprague Dawley, Indianapois, Ind. Recipient animals were placed on experimental diet containing 0.47% Ca 7 days prior to transplantation. Hullett et al., Transplantation 66:824-828, 1998. Recipients were divided into groups which received experimental diet alone or experimental diet containing 1,25-(OH)2D3 (250, 500, or 1000 ng/rat/day) or cyclosporine 1.5 or 5 mg/kg/day i.p. for 10 days. Animals were maintained on diet until the time or rejection or graft harvest at 24 weeks. All care and use of laboratory animals followed the NIH (NIH publication No. 86-23) guidelines. 1,25-(OH)2D3 was prepared, dissolved in ethanol and placed in the experimental diet as previously described.1,25-(OH)2D3 was the generous gift or Dr. Hector DeLuca, Department of Biochemistry, University of Wisconsin. Cyclosporine (Sandimmune i.v.; 1.5 or 5 mg/kg/day for 10 days,) was diluted in saline and given i.p. Transplantation: The Fisher to Lewis model of chronic allograft nephropathy has been previously described. Diamond et al., Transplantation 54:710-716, 1992. Briefly, donor kidneys obtained from male Fisher 344 rats were flushed with 10 ml cold University of Wisconsin preservation solution and stored at 4° C. while the recipient was prepared. […] Lewis male recipients were transplanted with either a Fisher 344 or Lewis kidney following left native nephrectomy. Briefly, the donor renal artery, vein and ureter were anastomosed to the recipient renal artery, vein and ureter. The right native kidney was removed 10 days post-transplant. Graft function was monitored by serum creatinine and urinary protein determinations. Urinary Protein: Proteinuria was assessed weekly. Animals were placed in metabolic cages for 6 hours and urine collected. Protein excretion was determined using a dye binding assay (quanTest red, Quantimetrix Corp., Redondo Beach, Calif.) according to manufacturer=s instructions with minor modifications. Briefly, 20 μl of the urine sample was diluted with 1×PBS in a two-fold series dilution in 96-well flat-bottom microtiter plates (Corning, N.Y.). […] Data was analyzed with Softmax Pro-software (Molecular Devices Corp.; Sunnyvale, Calif.). Graft survival was compared using the log rank test. Differences in mRNA and protein expression were compared by t-test.

Smad 3 protein = assay: Western blot of renal graft lysates, Smad 3 protein; details: allogeneic recipients regardless of treatment, vs syngeneic controls (data not shown)
Text: Renal lysates were subjected to SDS-PAGE and transferred to nitrocellulose membranes. The membranes were probed with specific anti-Smad antibodies and appropriated HRP-conjugated secondary antibodies. Signal was detected with chemilumensnce. Following exposure, x-ray films were scanned and the amount of expression compared to that of tubulin as an internal control using Scion Image software. FIG. 4 (A) describes R-Smad expression. FIG. 4 (B) described I-Smad expression.
Western Blot Analysis: A portion of the snap frozen graft containing both cortex and medulla was ground with a mortar and pestle. For each 100 mg of tissue, the sample was resuspened in 400 ul of lysis buffer (10 mM Tris base, 150 mM NaCl, pH 8.0) containing protease inhibitors (P2714 1:1000. Sigma Chemical Co., St. Louis, Mo.) and homogenized (PowerGen 125, 1 minute). Triton X100 was then added to 1% and the sample place on ice, for 30 minutes. The solubilized sample was then spun at 4° C. for 15 minutes at 15,000×G. The supernatant was collected and stored at −80° C. Sample protein concentrations were determined using the Micro BCA assay (Pierce Chemical Co., Rockford, Ill.) according to manufacturer=s instructions, except that the assay was performed in half area plates combining 35 μl sample with 70 µl of reagent. […]

Smad 7 mRNA = assay: Semi-quantitative RT-PCR of renal grafts, Smad 7 mRNA; details: vs controls
Method: Semi-quantitative Reverse transcription polymerace chain reaction (RT-PCR): Following graft harvest a […] containing both cortex and medulla was snap frozen in liquid nitrogen. Semi-quantitative RT-PCR was performed as described. Little et al. Transplant Int. 12:393-401, 1999. Briefly, samples were homogenized then total RNA extracted with RNAzol B (Tel Test, Inc., Friendswood, Tex.) and reversed transcribed to cDNA according to manufacturer=s instructions (Superscript, Gibco BRL). PCR was performed over the linear range of amplification for both the gene of interest, e.g. TGFβ-1, and the ribosomal protein S26 as a control housekeeping gene. PCR conditions were chosen such that both products were amplified with similar efficiency. The following cycle parameters were employed: denaturing, 94° C. for 60 seconds; annealing, 61° C. for 60 seconds; and extension, 72° C. for 60 seconds. The amount of product was quantified using a phosphoimager (Storm 80) following gel electrophoresis and Vista green detection.

[2] = allograft, 500 ng/rat/day, FIG. 2B

C=C1/C(=C\C=C2/CCC[C@]3(C)[C@@H]([C@H](C)CCCC(C)(C)O)CC[C@@H]23)C[C@@H](O)C[C@@H]1O [calcitriol, 1,25-dihydroxyvitamin D3]
Graft survival ([1]; 250 ng/day in diet, p=0.04): prolonged graft survival was not as readily demonstrated | Graft survival ([1]; 500 ng/rat/day in diet, vs allogeneic untreated controls, p=0.0009): significant prolongation of graft survival was sustained | Urinary protein ([1]; 500 ng/rat/day monotherapy (data not shown), vs untreated allogeneic controls or CSA 1.5 mg/kg/d): significantly lowered | Calcium deposits in graft ([1]; 1000 ng): Significant calcium deposits | Graft survival ([1]; 1000 ng/rat/day in diet, monotherapy, vs allogeneic untreated controls, p=0.0031): significantly prolonged | Urinary protein ([1]; 1000 ng/rat/day monotherapy, p=0.004, vs untreated allogeneic controls or CSA 1.5 mg/kg/d (10 days)): significantly lowered | Calcium deposition, histological examination ([1]; 250 and 500 ng/day groups): reduced calcium deposition | Cellular infiltration, histological examination (Banff) ([1]; 250 and 500 ng/day groups): mild to moderate cellular infiltration (Banff IA or IIA) | Serum calcium levels ([1]; 250 and 500 ng/day groups (data not shown)): remained elevated | Rise in serum creatinine at 2 weeks post-transplant ([1]; 500 or 250 ng/day): Neither the 500 or the 250 ng/day dose of 1,25-(OH)2D3 prevented the rise | Prolonged graft survival compared with low dose CSA (5 mg/kg/day for 10 days) ([1]; 1000 or 500 ng/rat/day): not statistically different | Early acute rejection episode (within 2 weeks post-transplant) ([1]; CSA: short-term low dose monotherapy, 1,25-(OH)2D3 in diet): diminished | Cellular infiltration (H&E) [1, 2]: significantly decreased | Interstitial fibrosis (H&E) [1, 2]: little or no interstitial fibrosis | Histological features of CAN (interstitial fibrosis, glomerulosclerosis, neointimal hyperplasia) ([1]; allografts, H&E, FIG. 2B): inhibited the development of these pathological features | Serum creatinine at 2 weeks post-transplant ([1]; p=0.035 versus untreated allogeneic control (FIG. 1B)): only a slight increase | Collagen deposition (trichrome stain) ([1]; treated allograft recipients, FIG. 2D-E): decreased collagen deposition | Smad 3 protein levels (Smad 3 protein): similar | Smad 7 mRNA levels (Smad 7 mRNA): no significant change
